In patent publication US10100056B2, “SHIP1 modulators and methods related thereto” (Aquinox Pharmaceuticals (Canada) Inc., priority 2013, dated 2018):

What follows are molecules tested on Akt phosphorylation in Molt-4 (PTEN-/SHIP1+) cells (assay: Akt phosphorylation in lymphocytes (Western blot, IGF-1 stimulated)). Conditions: 30 μM; Molt-4 (SHIP1+) cells, IGF-1 100 ng/mL.
Type: cell-based
Design: key: +: inhibits Akt phosphorylation at 30 μM; −: no effect on Akt phosphorylation at 30 μM
Experimental: Molt-4 (PTEN-/SHIP1+) cells are starved in serum free RPMI for overnight. In a 15 mL conical tube, 2-3 million serum starved cells (1 million cells per mL) are treated with various concentrations of test compound ([…]) for 30 min at 37° C. followed by stimulation with 100 ng/mL of IGF-1 for 1 hour at 37° C. After stimulation, cells are washed once with ice-cold DPBS and lysed with Lysis Buffer (20 mM Tris-HCl, pH 7.5, 140 mM NaCl, 1% NP-40, Complete Mini Protease Inhibitor Cocktail, 10 mM NaF, 1 mM Na3VO4, 1 mM β-glycerolphosphate) on ice for 30 min with vortexing every 10 min. Samples are then centrifuged at 13,000 rpm for 20 min, and supernatants are collected as total cell lysate samples. Protein concentration is determined using bicinchonic acid assay, and about 15 μg of total protein from each sample is loaded and separated on a 4-12% Tris-Glycine gel. After SDS-PAGE, proteins are transferred from the gel to a nitrocellulose membrane. The membrane is blocked in 5% BSA in PBS containing 0.1% Tween-20 (PBS-T) for 1 hour at room temperature before probing with primary antibodies for overnight at 4° C. The following antibodies are used: mouse anti-SHIP1 (1:500 dilution; Santa Cruz, Calif., USA), rabbit anti-phospho-Akt (Ser473) (1:1000 dilution; Cell Signaling Technologies, MA, USA), rabbit anti-Akt (1:1000; Cell Signaling Technologies, MA, USA), and rabbit anti-actin (1:2000; Cell Signaling Technologies, MA, USA). The membrane is then incubated with goat anti-rabbit or anti-mouse secondary antibodies (1:3000) for 1 hour at room temperature. Target proteins on the membrane are detected with ECL solution and exposed on a film.

Structure (SMILES)	Molt-4 (SHIP+): inhibition of Akt phosphorylation
CN(C)C[C@H]1C2=C(CC[C@@H]1[C@@]1(C)CC[C@H](O)C[C@@H]1CO)C(C)(C)CC2 [Cpd. No. 3, (1S,3S,4R)-4-((4R,5S)-4-((dimethylamino)methyl)-1,1-dimethyl-2,3,4,5,6,7-hexahydro-1H-inden-5-yl)-3-(hydroxymethyl)-4-methylcyclohexanol]	+
C=C1CC[C@H]2[C@H](O)[C@@H]([C@@]3(C)CC[C@H](O)C[C@@H]3CCN3CCCC3)CC[C@]12C [Cpd. No. 11, (3aR,4R,5R,7aS)-5-((1S,2S,4S)-4-hydroxy-1-methyl-2-(2-(pyrrolidin-1-yl)ethyl)cyclohexyl)-7a-methyl-1-methyleneoctahydro-1H-inden-4-ol]	+
C=C1CC[C@H]2[C@H](CNC(=O)C(C)(C)C)[C@@H]([C@@]3(C)CC[C@H](O)C[C@@H]3CO)CC[C@]12C [Cpd. No. 20, N-(((3aS,4R,5S,7aS)-5-((1R,2S,4S)-4-hydroxy-2-(hydroxymethyl)-1-methylcyclohexyl)-7a-methyl-1-methyleneoctahydro-1H-inden-4-yl)methyl)pivalamide]	+
C=C1CC[C@H]2[C@H](CNC(=O)C(C)C)[C@@H]([C@@]3(C)CC[C@H](O)C[C@@H]3CO)CC[C@]12C [Cpd. No. 21, N-(((3aS,4R,5S,7aS)-5-((1R,2S,4S)-4-hydroxy-2-(hydroxymethyl)-1-methylcyclohexyl)-7a-methyl-1-methyleneoctahydro-1H-inden-4-yl)methyl)isobutyramide]	+
C=C1CC[C@H]2[C@H](CNC(=O)CC)[C@@H]([C@@]3(C)CC[C@H](O)C[C@@H]3CO)CC[C@]12C [Cpd. No. 22, N-(((3aS,4R,5S,7aS)-5-((1R,2S,4S)-4-hydroxy-2-(hydroxymethyl)-1-methylcyclohexyl)-7a-methyl-1-methyleneoctahydro-1H-inden-4-yl)methyl)propionamide]	+
C=C1CC[C@H]2[C@H](CNC(=O)CCC)[C@@H]([C@@]3(C)CC[C@H](O)C[C@@H]3CO)CC[C@]12C [Cpd. No. 23, N-(((3aS,4R,5S,7aS)-5-((1R,2S,4S)-4-hydroxy-2-(hydroxymethyl)-1-methylcyclohexyl)-7a-methyl-1-methyleneoctahydro-1H-inden-4-yl)methyl)butyramide]	+
C=C1CC[C@H]2[C@H](CNC(=O)CCCC)[C@@H]([C@@]3(C)CC[C@H](O)C[C@@H]3CO)CC[C@]12C [Cpd. No. 24, N-(((3aS,4R,5S,7aS)-5-((1R,2S,4S)-4-hydroxy-2-(hydroxymethyl)-1-methylcyclohexyl)-7a-methyl-1-methyleneoctahydro-1H-inden-4-yl)methyl)pentanamide]	+
C=C1CC[C@H]2[C@H](CCN)[C@@H]([C@@]3(C)CC[C@H](O)C[C@@H]3CO)CC[C@]12C [Cpd. No. 29, (1S,3S,4R)-4-((3aS,4R,5S,7aS)-4-(2-aminoethyl)-7a-methyl-1-methyleneoctahydro-1H-inden-5-yl)-3-(hydroxymethyl)-4-methylcyclohexanol]	+
C=C1CC[C@H]2[C@H](CNCc3cc(OC)cc(OC)c3)[C@@H]([C@@]3(C)CC[C@H](O)C[C@@H]3CO)CC[C@]12C [Cpd. No. 32, (1S,3S,4R)-4-((3aS,4R,5S,7aS)-4-((3,5-dimethoxybenzylamino)methyl)-7a-methyl-1-methyleneoctahydro-1H-inden-5-yl)-3-(hydroxymethyl)-4-methylcyclohexanol]	+
C=C1CC[C@H]2[C@H](CNCc3ccc4c(c3)OCO4)[C@@H]([C@@]3(C)CC[C@H](O)C[C@@H]3CO)CC[C@]12C [Cpd. No. 34, (1S,3S,4R)-4-((3aS,4R,5S,7aS)-4-((benzo[d][1,3]dioxol-5-ylmethylamino)methyl)-7a-methyl-1-methyleneoctahydro-1H-inden-5-yl)-3-(hydroxymethyl)-4-methylcyclohexanol]	+
